Data published in ChEMBL document CHEMBL1201862, “PubChem BioAssay data set” (2004).
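Assay format: 96-well plates, 48-hour exposure. Here, GI50 denotes the concentration required for 50% inhibition of growth.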 Activity calls are given as the source filed them. Rule as the data show it: active = GI50 up to about 1.1 µM and inactive = higher.

How the values were obtained:
Assay in all cases: inhibition of tumour cell growth, NCI panel, 48 h
[1] = test system: CCRF-CEM
[2] = test system: OVCAR-8
[3] = test system: COLO 205
[4] = test system: K562
[5] = test system: SNB-19
[6] = test system: MDA-N
[7] = test system: CAKI-1
[8] = test system: MDA-MB-435
[9] = test system: HOP-62
[10] = test system: HL-60
[11] = test system: HCT-15
[12] = test system: M14
[13] = test system: LOX IMVI
[14] = test system: SF-268
[15] = test system: NCI-H23
[16] = test system: HCT-116
[17] = test system: SNB-75
[18] = test system: T47D
[19] = test system: ACHN
[20] = test system: A498
[21] = test system: HOP-92
[22] = test system: IGROV-1
[23] = test system: UO-31
[24] = test system: SR
[25] = test system: KM12
[26] = test system: NCI/ADR-RES
[27] = test system: NCI-H522
[28] = test system: A549
[29] = test system: Malme-3M
[30] = test system: SW-620
[31] = test system: SK-MEL-28
[32] = test system: HT-29
[33] = test system: RXF 393
[34] = test system: SF-539
[35] = test system: 786-0
[36] = test system: SN12C
[37] = test system: RPMI-8226
[38] = test system: SK-OV-3
[39] = test system: OVCAR-4
[40] = test system: Hs-578T
[41] = test system: UACC-257
[42] = test system: NCI-H460
[43] = test system: MOLT-4
[44] = test system: SK-MEL-2
[45] = test system: SK-MEL-5
[46] = test system: PC-3
[47] = test system: NCI-H226
[48] = test system: MCF7
[49] = test system: TK-10
[50] = test system: UACC-62
[51] = test system: DU-145
[52] = test system: U-251
[53] = test system: HCC 2998
[54] = test system: MDA-MB-231
[55] = test system: OVCAR-5
[56] = test system: EKVX
[57] = test system: OVCAR-3
[58] = test system: SF-295

O=C(Cn1c(=O)oc2ccc(C(=O)c3ccc(F)cc3)cc21)c1ccccc1
GI50 [1]: > 100 µM (inactive)
GI50 [2]: > 100 µM (inactive)
GI50 [3]: 66.2 µM (inactive)
GI50 [4]: > 100 µM (inactive)
GI50 [5]: > 100 µM (inactive)
GI50 [6]: > 100 µM (inactive)
GI50 [7]: > 100 µM (inactive)
GI50 [8]: > 100 µM (inactive)
GI50 [9]: > 100 µM (inactive)
GI50 [10]: > 100 µM (inactive)
GI50 [11]: > 100 µM
GI50 [12]: > 100 µM (inactive)
GI50 [13]: > 100 µM (inactive)
GI50 [14]: > 100 µM (inactive)
GI50 [15]: > 100 µM (inactive)
GI50 [16]: > 100 µM (inactive)
GI50 [17]: > 100 µM (inactive)
GI50 [18]: 93.5 µM (inactive)
GI50 [19]: > 100 µM (inactive)
GI50 [20]: 21 µM (inactive)
GI50 [21]: > 100 µM (inactive)
GI50 [22]: > 100 µM (inactive)
GI50 [23]: 25.7 µM (inactive)
GI50 [24]: > 100 µM (inactive)
GI50 [25]: > 100 µM (inactive)
GI50 [26]: > 100 µM (inactive)
GI50 [27]: > 100 µM (inactive)
GI50 [28]: 55.8 µM (inactive)
GI50 [29]: > 100 µM (inactive)
GI50 [30]: > 100 µM (inactive)
GI50 [31]: > 100 µM (inactive)
GI50 [32]: 42.7 µM (inactive)
GI50 [33]: > 100 µM (inactive)
GI50 [34]: > 100 µM (inactive)
GI50 [35]: > 100 µM (inactive)
GI50 [36]: > 100 µM (inactive)
GI50 [37]: > 100 µM (inactive)
GI50 [38]: > 100 µM (inactive)
GI50 [39]: > 100 µM (inactive)
GI50 [40]: > 100 µM (inactive)
GI50 [41]: > 100 µM (inactive)
GI50 [42]: 53.5 µM (inactive)
GI50 [43]: 42.4 µM (inactive)
GI50 [44]: > 100 µM (inactive)
GI50 [45]: 48 µM (inactive)
GI50 [46]: > 100 µM (inactive)
GI50 [47]: > 100 µM (inactive)
GI50 [48]: > 100 µM (inactive)
GI50 [49]: > 100 µM (inactive)
GI50 [50]: > 100 µM (inactive)
GI50 [51]: > 100 µM (inactive)
GI50 [52]: > 100 µM (inactive)
GI50 [53]: > 100 µM (inactive)
GI50 [54]: > 100 µM (inactive)
GI50 [55]: > 100 µM (inactive)

Nc1c(Br)cc(-c2cc(Br)c(N)c(Br)c2)cc1Br
GI50 [1]: > 100 µM (inactive)
GI50 [2]: > 100 µM (inactive)
GI50 [3]: > 100 µM (inactive)
GI50 [4]: > 100 µM (inactive)
GI50 [56]: > 100 µM (inactive)
GI50 [5]: > 100 µM (inactive)
GI50 [6]: > 100 µM (inactive)
GI50 [7]: > 100 µM (inactive)
GI50 [8]: > 100 µM (inactive)
GI50 [9]: 66.1 µM (inactive)
GI50 [10]: > 100 µM (inactive)
GI50 [12]: > 100 µM (inactive)
GI50 [13]: > 100 µM (inactive)
GI50 [14]: > 100 µM (inactive)
GI50 [15]: > 100 µM (inactive)
GI50 [16]: > 100 µM (inactive)
GI50 [17]: 59 µM (inactive)
GI50 [18]: > 100 µM (inactive)
GI50 [19]: > 100 µM (inactive)
GI50 [21]: > 100 µM (inactive)
GI50 [22]: > 100 µM (inactive)
GI50 [23]: > 100 µM (inactive)
GI50 [24]: > 100 µM (inactive)
GI50 [25]: > 100 µM (inactive)
GI50 [26]: > 100 µM (inactive)
GI50 [27]: > 100 µM (inactive)
GI50 [28]: > 100 µM (inactive)
GI50 [29]: > 100 µM (inactive)
GI50 [30]: > 100 µM (inactive)
GI50 [31]: > 100 µM (inactive)
GI50 [32]: > 100 µM (inactive)
GI50 [33]: 33.6 µM (inactive)
GI50 [34]: > 100 µM (inactive)
GI50 [35]: > 100 µM (inactive)
GI50 [36]: > 100 µM (inactive)
GI50 [37]: > 100 µM (inactive)
GI50 [38]: > 100 µM (inactive)
GI50 [57]: > 100 µM (inactive)
GI50 [39]: > 100 µM (inactive)
GI50 [40]: 73.1 µM (inactive)
GI50 [41]: > 100 µM (inactive)
GI50 [42]: > 100 µM (inactive)
GI50 [43]: > 100 µM (inactive)
GI50 [58]: > 100 µM (inactive)
GI50 [45]: > 100 µM (inactive)
GI50 [46]: > 100 µM (inactive)
GI50 [47]: > 100 µM (inactive)
GI50 [48]: > 100 µM (inactive)
GI50 [49]: > 100 µM (inactive)
GI50 [50]: > 100 µM (inactive)
GI50 [51]: > 100 µM (inactive)
GI50 [53]: > 100 µM (inactive)
GI50 [54]: > 100 µM (inactive)
GI50 [55]: > 100 µM (inactive)

COc1ccc2c(c1)c[n+](C)c1c3cc(OC)c(OC)cc3ccc21
GI50 [2]: 1.22 µM (inactive)
GI50 [3]: 1.67 µM (inactive)
GI50 [5]: 3.21 µM (inactive)
GI50 [6]: 1.6 µM (inactive)
GI50 [7]: 11.9 µM (inactive)
GI50 [11]: 14 µM
GI50 [13]: 1.32 µM (inactive)
GI50 [14]: 1.45 µM (inactive)
GI50 [24]: 2.1 µM (inactive)
GI50 [26]: > 100 µM (inactive)
GI50 [27]: 1.02 µM (active)
GI50 [28]: 1.54 µM (inactive)
GI50 [30]: 1.37 µM (inactive)
GI50 [36]: 1.73 µM (inactive)
GI50 [40]: 2.05 µM (inactive)
GI50 [52]: 1.02 µM (active)
GI50 [54]: 1.42 µM (inactive)

CC1(C)O[C@H](C(=O)O)[C@@H](C(=O)O)O1
GI50 [1]: > 100 µM (inactive)
GI50 [2]: > 100 µM (inactive)
GI50 [3]: > 100 µM (inactive)
GI50 [4]: > 100 µM (inactive)
GI50 [56]: > 100 µM (inactive)
GI50 [5]: > 100 µM (inactive)
GI50 [6]: > 100 µM (inactive)
GI50 [7]: > 100 µM (inactive)
GI50 [8]: > 100 µM (inactive)
GI50 [9]: > 100 µM (inactive)
GI50 [11]: > 100 µM
GI50 [12]: > 100 µM (inactive)
GI50 [13]: > 100 µM (inactive)
GI50 [14]: > 100 µM (inactive)
GI50 [16]: > 100 µM (inactive)
GI50 [17]: > 100 µM (inactive)
GI50 [18]: > 100 µM (inactive)
GI50 [19]: > 100 µM (inactive)
GI50 [20]: > 100 µM (inactive)
GI50 [21]: > 100 µM (inactive)
GI50 [22]: > 100 µM (inactive)
GI50 [24]: > 100 µM (inactive)
GI50 [25]: > 100 µM (inactive)
GI50 [26]: > 100 µM (inactive)
GI50 [27]: > 100 µM (inactive)
GI50 [28]: > 100 µM (inactive)
GI50 [29]: > 100 µM (inactive)
GI50 [30]: > 100 µM (inactive)
GI50 [31]: > 100 µM (inactive)
GI50 [32]: > 100 µM (inactive)
GI50 [33]: > 100 µM (inactive)
GI50 [34]: > 100 µM (inactive)
GI50 [35]: > 100 µM (inactive)
GI50 [36]: > 100 µM (inactive)
GI50 [37]: > 100 µM (inactive)
GI50 [38]: > 100 µM (inactive)
GI50 [39]: > 100 µM (inactive)
GI50 [40]: > 100 µM (inactive)
GI50 [41]: > 100 µM (inactive)
GI50 [42]: > 100 µM (inactive)
GI50 [43]: > 100 µM (inactive)
GI50 [44]: > 100 µM (inactive)
GI50 [58]: > 100 µM (inactive)
GI50 [45]: > 100 µM (inactive)
GI50 [46]: > 100 µM (inactive)
GI50 [47]: > 100 µM (inactive)
GI50 [48]: > 100 µM (inactive)
GI50 [49]: > 100 µM (inactive)
GI50 [50]: > 100 µM (inactive)
GI50 [51]: > 100 µM (inactive)
GI50 [52]: > 100 µM (inactive)
GI50 [53]: > 100 µM (inactive)
GI50 [54]: > 100 µM (inactive)
GI50 [55]: > 100 µM (inactive)
